Some results are limits rather than exact numbers.

One test addresses T1, human IL-17AA (Homo sapiens, UniProt Q16552).
T1 construct: host or cells: HEK (human embryonic kidney) cells
T1 sequence (Q16552 24-155) 1: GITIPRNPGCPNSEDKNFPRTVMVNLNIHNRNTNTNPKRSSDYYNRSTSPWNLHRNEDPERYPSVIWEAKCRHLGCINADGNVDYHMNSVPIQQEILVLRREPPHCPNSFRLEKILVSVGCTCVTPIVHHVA
T1 sequence (Q16552 24-155) 2: T1 sequence (Q16552 24-155) 1
Nature of the test: IL-8 release assay in human epithelial keratinocytes adult (HEKa). The class given is cell-based. As to conditions: HEKa cells; 3 ng/mL HEK-human IL-17AA + 10 ng/mL human TNFalpha; 68-72 hours; IL-8 by HTRF. The method, then: Example 8: IL-8 Release Assay in Human Epithelial Keratinocytes Adult (HEKa)
Keratinocytes were seeded at 3500 cells/well in 384-well ViewPlates (Perkin Elmer) in Epilife medium (Thermo Fisher) containing human keratinocyte growth supplement (HKGS) without hydrocortisone and incubated in a humid incubator at 37° C., 5% CO2, overnight. The following day growth medium was removed and 25 μl fresh Epilife medium was added. 75 nL test compound in100% DMSO was added into each well reserved for test compounds, by the use of acoustic pipetting. The remaining wells received an equal volume of DMSO only, as vehicle control, or terfenadine in DMSO, as a positive control for any cytotoxic compounds. Subsequently, another 25 μL Epilife medium was added to each well. Finally, wells containing test compounds and wells prepared to yield maximum stimulation received 25 μL of 9 ng/mL recombinant, human embryonic kidney cell (HEK)-derived human IL-17AA+30 ng/mL human TNF-alpha, in Epilife medium. Wells prepared to define 100% inhibition of IL-17 effects received 25 μL of 30 ng/mL human TNF-alpha alone, in Epilife medium. Final concentrations were 3 ng/mL HEK-human IL-17AA+10 ng/mL human TNFalpha (maximum stimulation) and 10 ng/mL human TNFalpha alone (100% inhibition, Emax), respectively. Cells were incubated for 68-72 hours in the incubator. IL-8 released from the cells was measured by the use of a commercial homogenous time-resolved fluorescence (HTRF) assay (CisBio). 2 μL cell culture supernatant was transferred to a 384-well Proxiplate. 5 μL HTRF reagent was added and the plates were incubated sealed in the dark for 3-22 hours at room temperature. Time-resolved fluorescence was read at 665 vs 620 nm, with excitation at 320 nm, and IL-8 levels were calculated as percent of controls. Reduction of the amount of secreted IL-8 indicates decreased IL-17 signaling. Concentration response curves were fitted by the use of a four-parameter logistic equation. Relative IC50 and Emax were reported from curves showing acceptable fit (r^2>0.9). Cytotoxicity was measured in the cell-containing Viewplates following addition of 7 μL PrestoBlue (Thermo Fisher) and incubation for 2.5-3 hours at room temperature, by measuring fluorescence at 615 nm (excitation at 535 nm). Fluorescence was directly proportional to the amount of metabolic activity. Reduction of fluorescence signal indicated cytotoxicity.
Compounds of the present invention were tested in the IL-8 release assay in human epithelial keratinocytes.
With `Cc1cn(C)nc1-c1nnc(C(C(=O)Nc2ccc(-c3c(C)n[nH]c3C)cc2)C(C2CC2)C2CC2)[nH]1` (centres unmarked) [Example 46, 3,3-dicyclopropyl-N-[4-(3,5-dimethyl-1H-pyrazol-4-yl)phenyl]-2-[5-(1,4-dimethylpyrazol-3-yl)-4H-1,2,4-triazol-3-yl]propanamide], the “Rel EC50 IL-8 release assay” value is on record as “no”.

The same test, now with this note: HEKa cells; 3 ng/mL HEK-human IL-17AA + 10 ng/mL human TNFalpha; 68-72 hours; IL-8 by HTRF; read-out: Rel EC50 IL-8 release assay.
In the case of `Cc1n[nH]c(C)c1-c1ccc(NC(=O)C(c2nnc(-c3ccn[nH]3)[nH]2)C(C2CC2)C2CC2)cc1` (centres unmarked) [Example 24, 3,3-dicyclopropyl-N-[4-(3,5-dimethyl-1H-pyrazol-4-yl)phenyl]-2-[5-(1H-pyrazol-5-yl)-4H-1,2,4-triazol-3-yl]propanamide], the EC50 is 690 nM.

Regarding `Cc1nn(C)cc1-c1nnc(C(C(=O)Nc2ccc(-c3c(C)n[nH]c3C)cc2)C(C2CC2)C2CC2)[nH]1` (centres unmarked) [Example 25, 3,3-dicyclopropyl-N-[4-(3,5-dimethyl-1H-pyrazol-4-yl)phenyl]-2-[5-(1,3-dimethylpyrazol-4-yl)-4H-1,2,4-triazol-3-yl]propanamide], the EC50 came out at 230 nM.

As to `Cc1n[nH]c(C)c1-c1ccc(NC(=O)C(c2nnc(-c3ccnn3CC(F)(F)F)[nH]2)C(C2CC2)C2CC2)cc1` (centres unmarked) [Example 26, 3,3-dicyclopropyl-N-[4-(3,5-dimethyl-1H-pyrazol-4-yl)phenyl]-2-[5-[2-(2,2,2-trifluoroethyl)pyrazol-3-yl]-4H-1,2,4-triazol-3-yl]propanamide], the EC50 amounted to 24 nM.

Regarding `Cc1n[nH]c(C)c1-c1ccc(NC(=O)C(c2nnc(-c3ccnn3C3CCC3)[nH]2)C(C2CC2)C2CC2)cc1` (centres unmarked) [Example 27, 2-[5-(2-cyclobutylpyrazol-3-yl)-4H-1,2,4-triazol-3-yl]-3,3-dicyclopropyl-N-[4-(3,5-dimethyl-1H-pyrazol-4-yl)phenyl]propanamide], the EC50 was 32 nM.

In the case of `Cc1cc(-c2nnc(C(C(=O)Nc3ccc(-c4c(C)n[nH]c4C)cc3)C(C3CC3)C3CC3)[nH]2)ccn1` (centres unmarked) [Example 28, 3,3-dicyclopropyl-N-[4-(3,5-dimethyl-1H-pyrazol-4-yl)phenyl]-2-[5-(2-methyl-4-pyridyl)-4H-1,2,4-triazol-3-yl]propanamide], the EC50 turned out to be 140 nM.

As to `Cc1n[nH]c(C)c1-c1ccc(NC(=O)C(c2nnc(-c3c(C)n[nH]c3C)[nH]2)C(C2CC2)C2CC2)cc1` (centres unmarked) [Example 29, 3,3-dicyclopropyl-N-[4-(3,5-dimethyl-1H-pyrazol-4-yl)phenyl]-2-[5-(3,5-dimethyl-1H-pyrazol-4-yl)-4H-1,2,4-triazol-3-yl]propanamide], the EC50 is 1400 nM.

Consider `Cc1n[nH]c(C)c1-c1ccc(NC(=O)C(c2nnc(-c3cnn(C(C)C)c3)[nH]2)C(C2CC2)C2CC2)cc1` (centres unmarked) [Example 30, 3,3-dicyclopropyl-N-[4-(3,5-dimethyl-1H-pyrazol-4-yl)phenyl]-2-[5-(1-isopropylpyrazol-4-yl)-4H-1,2,4-triazol-3-yl]propanamide], for which the EC50 was determined as 270 nM.

Regarding `Cc1n[nH]c(C)c1-c1ccc(NC(=O)C(c2nnc(-c3cccnc3)[nH]2)C(C2CC2)C2CC2)cc1` (centres unmarked) [Example 31, 3,3-dicyclopropyl-N-[4-(3,5-dimethyl-1H-pyrazol-4-yl)phenyl]-2-[5-(3-pyridyl)-4H-1,2,4-triazol-3-yl]propanamide], the EC50 is 430 nM.

For `Cc1n[nH]c(C)c1-c1ccc(NC(=O)C(c2nnc(-c3c(C)noc3C)[nH]2)C(C2CC2)C2CC2)cc1` (centres unmarked) [Example 32, 3,3-dicyclopropyl-2-[5-(3,5-dimethylisoxazol-4-yl)-4H-1,2,4-triazol-3-yl]-N-[4-(3,5-dimethyl-1H-pyrazol-4-yl)phenyl]propanamide], the EC50 was determined as 910 nM.

On to `Cc1n[nH]c(C)c1-c1ccc(NC(=O)C(c2nnc(-c3ccncc3)[nH]2)C(C2CC2)C2CC2)cc1` (centres unmarked) [Example 33, 3,3-dicyclopropyl-N-[4-(3,5-dimethyl-1H-pyrazol-4-yl)phenyl]-2-[5-(4-pyridyl)-4H-1,2,4-triazol-3-yl]propanamide], for which the EC50 came to 480 nM.

For the compound `COc1ccc(-c2nnc(C(C(=O)Nc3ccc(-c4c(C)n[nH]c4C)cc3)C(C3CC3)C3CC3)[nH]2)cn1` (centres unmarked) [Example 34, 3,3-dicyclopropyl-N-[4-(3,5-dimethyl-1H-pyrazol-4-yl)phenyl]-2-[5-(6-methoxy-3-pyridyl)-4H-1,2,4-triazol-3-yl]propanamide], the EC50 came out at 430 nM.

As to `COc1cc(-c2nnc(C(C(=O)Nc3ccc(-c4c(C)n[nH]c4C)cc3)C(C3CC3)C3CC3)[nH]2)ccn1` (centres unmarked) [Example 35, 3,3-dicyclopropyl-N-[4-(3,5-dimethyl-1H-pyrazol-4-yl)phenyl]-2-[5-(2-methoxy-4-pyridyl)-4H-1,2,4-triazol-3-yl]propanamide], the EC50 was found to be 160 nM.

For `Cc1ccc(-c2nnc(C(C(=O)Nc3ccc(-c4c(C)n[nH]c4C)cc3)C(C3CC3)C3CC3)[nH]2)cn1` (centres unmarked) [Example 36, 3,3-dicyclopropyl-N-[4-(3,5-dimethyl-1H-pyrazol-4-yl)phenyl]-2-[5-(6-methyl-3-pyridyl)-4H-1,2,4-triazol-3-yl]propanamide], the EC50 stood at 440 nM.

Consider `Cc1cnn(C)c1-c1nnc(C(C(=O)Nc2ccc(-c3c(C)n[nH]c3C)cc2)C(C2CC2)C2CC2)[nH]1` (centres unmarked) [Example 37, 3,3-dicyclopropyl-N-[4-(3,5-dimethyl-1H-pyrazol-4-yl)phenyl]-2-[5-(2,4-dimethylpyrazol-3-yl)-4H-1,2,4-triazol-3-yl]propanamide], for which the EC50 turned out to be 380 nM.

With `Cc1n[nH]c(C)c1-c1ccc(NC(=O)C(c2nnc(-c3cnn(C)c3C)[nH]2)C(C2CC2)C2CC2)cc1` (centres unmarked) [Example 38, 3,3-dicyclopropyl-N-[4-(3,5-dimethyl-1H-pyrazol-4-yl)phenyl]-2-[5-(1,5-dimethylpyrazol-4-yl)-4H-1,2,4-triazol-3-yl]propanamide], the EC50 amounted to 360 nM.

With `Cc1n[nH]cc1-c1nnc(C(C(=O)Nc2ccc(-c3c(C)n[nH]c3C)cc2)C(C2CC2)C2CC2)[nH]1` (centres unmarked) [Example 39, 3,3-dicyclopropyl-N-[4-(3,5-dimethyl-1H-pyrazol-4-yl)phenyl]-2-[5-(3-methyl-1H-pyrazol-4-yl)-4H-1,2,4-triazol-3-yl]propanamide], the EC50 came out at 500 nM.

Consider `Cc1n[nH]c(C)c1-c1ccc(NC(=O)C(c2nnc(-c3cnnn3C)[nH]2)C(C2CC2)C2CC2)cc1` (centres unmarked) [Example 40, 3,3-dicyclopropyl-N-[4-(3,5-dimethyl-1H-pyrazol-4-yl)phenyl]-2-[5-(3-methyltriazol-4-yl)-4H-1,2,4-triazol-3-yl]propanamide], for which the EC50 was 860 nM.

Take `Cc1n[nH]c(C)c1-c1ccc(NC(=O)C(c2nnc(-c3cnoc3C)[nH]2)C(C2CC2)C2CC2)cc1` (centres unmarked) [Example 41, 3,3-dicyclopropyl-N-[4-(3,5-dimethyl-1H-pyrazol-4-yl)phenyl]-2-[5-(5-methylisoxazol-4-yl)-4H-1,2,4-triazol-3-yl]propanamide]: the EC50 is above 3250 nM.

Turning to `Cc1nocc1-c1nnc(C(C(=O)Nc2ccc(-c3c(C)n[nH]c3C)cc2)C(C2CC2)C2CC2)[nH]1` (centres unmarked) [Example 42, 3,3-dicyclopropyl-N-[4-(3,5-dimethyl-1H-pyrazol-4-yl)phenyl]-2-[5-(3-methylisoxazol-4-yl)-4H-1,2,4-triazol-3-yl]propanamide], the EC50 is 470 nM.

On to `Cc1n[nH]c(C)c1-c1ccc(NC(=O)C(c2nnc(-c3ccnn3C(C)C)[nH]2)C(C2CC2)C2CC2)cc1` (centres unmarked) [Example 43, 3,3-dicyclopropyl-N-[4-(3,5-dimethyl-1H-pyrazol-4-yl)phenyl]-2-[5-(2-isopropylpyrazol-3-yl)-4H-1,2,4-triazol-3-yl]propanamide], for which the EC50 was found to be 66 nM.

On to `Cc1n[nH]c(C)c1-c1ccc(NC(=O)C(c2nnc(-c3ccnn3C3CC3)[nH]2)C(C2CC2)C2CC2)cc1` (centres unmarked) [Example 44, 3,3-dicyclopropyl-2-[5-(2-cyclopropylpyrazol-3-yl)-4H-1,2,4-triazol-3-yl]-N-[4-(3,5-dimethyl-1H-pyrazol-4-yl)phenyl]propanamide], for which the EC50 came out at 77 nM.

As for `Cc1n[nH]c(C)c1-c1ccc(NC(=O)C(c2nnc(-c3ccnn3CC3CC3)[nH]2)C(C2CC2)C2CC2)cc1` (centres unmarked) [Example 45, 3,3-dicyclopropyl-2-[5-[2-(cyclopropylmethyl)pyrazol-3-yl]-4H-1,2,4-triazol-3-yl]-N-[4-(3,5-dimethyl-1H-pyrazol-4-yl)phenyl]propanamide], the EC50 is 22 nM.

As usually defined, the EC50 is the concentration at which the effect is half-maximal.

The record behind these values is patent publication US20230227435A1, “SMALL MOLECULE MODULATORS OF IL-17” (LEO PHARMA A/S, priority 2020, published 2023).
